Laboratory results published in patent publication US10844101B2, “Plant-derived elastin binding protein ligands and methods of using the same” (ELASTOGENESIS, LLC, priority 2005, dated 2020).
“Also recorded” adds a separate entry of the source.

Tests used:
[1] = system: elastin gene in adult dermal fibroblasts; assay: RT-PCR with specific tropoelastin probe (transcription of the elastin gene); type: cell-based, human; details: serum-free medium and 10% FBS
From the text: Using a BLAST search through the National Library of Medicine website, we identified the IGVAPG (SEQ ID NO. 13) domain in the amino acid sequence for a transcription factor of Japanese rice, which also reflects the common EBP-binding GXXPG (SEQ ID NO. 2) motif found in elastin and laminin. We used RT-PCR to measure transcription of the elastin gene by peptides of the invention.

[2] = system: dermal fibroblasts; assay: Cellular proliferation by [3H]-thymidine incorporation; type: cell-based, human; details: dermal fibroblasts vs control
From the text: Results of this calculation, showing a more profound effect of EBPL-2 on net deposition of insoluble elastin per culture, led to the hypothesis that EBPL-2, similarly to VGVAPG (SEQ ID NO. 1), also stimulates cellular proliferation.

[3] = system: human skin explants; assay: Organ cultures of human skin explants stained with Movat pentachrome stain; type: cell-based
[4] = system: human dermal fibroblasts; assay: Immunostaining with anti-tropoelastin antibody and morphometric analysis of elastic fiber deposition in 7-day dermal fibroblast cultures; type: cell-based; details: for elastogenesis level compared with VGVAPG or EBPL-1 treated cultures: 7 day-old primary cultures of dermal fibroblasts; for extracellular elastic fibers deposited (anti-tropoelastin immunostaining) / levels of intra- and extracellular tropoelastin (immunocytochemical staining): 7 days; for extracellular elastic fibers deposited (anti-tropoelastin immunostaining): fibroblasts, VGVAPG 5 μg/mL, EBPL-2 5 μg/mL, EBPL-3 10 μg/mL; for more elastic fibers / tropoelastin than control cultures, maximally produced (quantitative morphometric analysis of immuno-detectable tropoelastin): maximum effect vs control
Protocol: In all experiments except those using CDBR, consecutive passages 3-7 were tested. Cells were incubated in the presence and absence of VGVAPG (SEQ ID NO. 1) (5 μg/mL), EBPL-2 (5 μg/mL) and EBPL-3 (10 μg/mL). In experiments using CDRB cell passage 3 was tested, cells were densely plated (50×10^6 cells/dish) to rich immediate confluency and than cultured for 7 days in the presence and absence of 25 μg/ml CDBR (added at day 1 and 3).

[5] = system: human fibroblasts derived from normal human skin; assay: [3H]-valine metabolic labeling and assay of newly deposited NaOH-insoluble elastin in fibroblast cultures; type: cell-based; details: [3H]-valine labeling 3 days; for net deposition of insoluble elastin, maximum over control values: expressed per culture dish, dose dependent
Protocol: Fibroblasts were densely plated (50×10^5/dish) and grown to confluency in 10 cm cell culture dishes in quadruplicate. 20 μCi of [^3H]-valine was added to each dish along with fresh media. Cultures were then incubated for 72 hours and insoluble elastin was assessed separately in each culture.

[6] = organ cultures of human skin biopsies
[7] = adult dermal fibroblasts, 7 day old cultures

## IGVAPG (Synthetic derived from Oryza sativa) [EBPL-2]
[1]
  transcription of the elastin gene: increased transcription of the elastin gene
[2]
  incorporation of [3H]-thymidine (cellular proliferation): higher than control incorporation of [^3H]-thymidine
[3]; 10-day old organ cultures, person
  elastic fibers (black stain) in skin explant organ cultures: contained more elastic fibers
[3]; [6]
  dilatation of existing dermal capillaries: stimulates dilatation of existing capillaries
  production of new elastic fibers by pericytes: stimulated production of new elastic fibers by pericytes
[4]
  elastogenesis level compared with VGVAPG or EBPL-1 treated cultures: capable of inducing elastogenesis to the levels that exceed those obtained in cultures treated with VGVAPG; also recorded: higher net deposition of tropoelastin than their counterparts cultured with VGVAPG
  extracellular elastic fibers deposited (anti-tropoelastin immunostaining): deposition of thick extracellular elastic fibers
[4]; [7]
  more elastic fibers / tropoelastin than control cultures, maximally produced (quantitative morphometric analysis of immuno-detectable tropoelastin): 710%
[4]; adult dermal fibroblasts, 7 day old cultures, maximum vs maximum ProK-60
  more tropoelastin than maximum ProK-60-induced levels: 141%
[4]; adult dermal fibroblasts
  levels of intra- and extracellular tropoelastin (immunocytochemical staining): enhanced levels of intra- and extracellular tropoelastin
[5]; 10 μg/mL, normalized per DNA content
  more radioactively labeled insoluble elastin as compared to non-treated fibroblasts: 36%
[5]
  net deposition of insoluble elastin, maximum over control values: 175%

## IGVAPGAAAAAIGVAPG (Synthetic derived from Oryza sativa) [EBPL-3]
[4]
  elastogenesis level compared with VGVAPG or EBPL-1 treated cultures: capable of inducing elastogenesis to the levels that exceed those obtained in cultures treated with VGVAPG
  extracellular elastic fibers deposited (anti-tropoelastin immunostaining): deposition of thick extracellular elastic fibers

## VGVAPG (Synthetic derived from Oryza sativa) [elastin receptor ligand hexapeptide obtained from Sigma, reference compound]
[1]
  transcription of the elastin gene: stimulated transcription
[2]
  incorporation of [3H]-thymidine (cellular proliferation): higher than control incorporation of [^3H]-thymidine
[4]
  extracellular elastic fibers deposited (anti-tropoelastin immunostaining): very thin extracellular elastic fibers at levels greater than the control levels
[4]; [7]
  more elastic fibers / tropoelastin than control cultures, maximally produced (quantitative morphometric analysis of immuno-detectable tropoelastin): 457%
[4]; adult dermal fibroblasts
  levels of intra- and extracellular tropoelastin (immunocytochemical staining): enhanced levels of intra- and extracellular tropoelastin
[5]
  net deposition of insoluble elastin, maximum over control values: 109%

## VGVAPGAAAAAVGVAPG (Synthetic derived from Oryza sativa) [EBPL-1]
[4]
  extracellular elastic fibers deposited (anti-tropoelastin immunostaining): very thin extracellular elastic fibers at levels greater than the control levels
